Measured values from patent US20230000849A1, “INHIBITION OF SMARCA2 FOR TREATMENT OF CANCER” (Epizyme, Inc., priority 2017, published 2023).
Entries after “also recorded” stand apart in the source; their conditions may differ.

Legend:
[1] = system: SMARCA4 wild-type or mutant cell lines; assay: Cell growth in SMARCA4 wild-type or mutant cell lines (FIG. 6B); assay type: cell-based; conditions: SMARCA4-wt or mutant cell lines
Description: FIGS. 6A and 6B are a series of graphs illustrating antiproliferative effects of bromodomain inhibitor PFI-3.

[2] = biological target: SMACA2 (Homo sapiens, UniProt P51531); assay: PFI-3 binding to SMARCA2 (FIG. 6A)
Sequence of SMACA2 (P51531 whole entry): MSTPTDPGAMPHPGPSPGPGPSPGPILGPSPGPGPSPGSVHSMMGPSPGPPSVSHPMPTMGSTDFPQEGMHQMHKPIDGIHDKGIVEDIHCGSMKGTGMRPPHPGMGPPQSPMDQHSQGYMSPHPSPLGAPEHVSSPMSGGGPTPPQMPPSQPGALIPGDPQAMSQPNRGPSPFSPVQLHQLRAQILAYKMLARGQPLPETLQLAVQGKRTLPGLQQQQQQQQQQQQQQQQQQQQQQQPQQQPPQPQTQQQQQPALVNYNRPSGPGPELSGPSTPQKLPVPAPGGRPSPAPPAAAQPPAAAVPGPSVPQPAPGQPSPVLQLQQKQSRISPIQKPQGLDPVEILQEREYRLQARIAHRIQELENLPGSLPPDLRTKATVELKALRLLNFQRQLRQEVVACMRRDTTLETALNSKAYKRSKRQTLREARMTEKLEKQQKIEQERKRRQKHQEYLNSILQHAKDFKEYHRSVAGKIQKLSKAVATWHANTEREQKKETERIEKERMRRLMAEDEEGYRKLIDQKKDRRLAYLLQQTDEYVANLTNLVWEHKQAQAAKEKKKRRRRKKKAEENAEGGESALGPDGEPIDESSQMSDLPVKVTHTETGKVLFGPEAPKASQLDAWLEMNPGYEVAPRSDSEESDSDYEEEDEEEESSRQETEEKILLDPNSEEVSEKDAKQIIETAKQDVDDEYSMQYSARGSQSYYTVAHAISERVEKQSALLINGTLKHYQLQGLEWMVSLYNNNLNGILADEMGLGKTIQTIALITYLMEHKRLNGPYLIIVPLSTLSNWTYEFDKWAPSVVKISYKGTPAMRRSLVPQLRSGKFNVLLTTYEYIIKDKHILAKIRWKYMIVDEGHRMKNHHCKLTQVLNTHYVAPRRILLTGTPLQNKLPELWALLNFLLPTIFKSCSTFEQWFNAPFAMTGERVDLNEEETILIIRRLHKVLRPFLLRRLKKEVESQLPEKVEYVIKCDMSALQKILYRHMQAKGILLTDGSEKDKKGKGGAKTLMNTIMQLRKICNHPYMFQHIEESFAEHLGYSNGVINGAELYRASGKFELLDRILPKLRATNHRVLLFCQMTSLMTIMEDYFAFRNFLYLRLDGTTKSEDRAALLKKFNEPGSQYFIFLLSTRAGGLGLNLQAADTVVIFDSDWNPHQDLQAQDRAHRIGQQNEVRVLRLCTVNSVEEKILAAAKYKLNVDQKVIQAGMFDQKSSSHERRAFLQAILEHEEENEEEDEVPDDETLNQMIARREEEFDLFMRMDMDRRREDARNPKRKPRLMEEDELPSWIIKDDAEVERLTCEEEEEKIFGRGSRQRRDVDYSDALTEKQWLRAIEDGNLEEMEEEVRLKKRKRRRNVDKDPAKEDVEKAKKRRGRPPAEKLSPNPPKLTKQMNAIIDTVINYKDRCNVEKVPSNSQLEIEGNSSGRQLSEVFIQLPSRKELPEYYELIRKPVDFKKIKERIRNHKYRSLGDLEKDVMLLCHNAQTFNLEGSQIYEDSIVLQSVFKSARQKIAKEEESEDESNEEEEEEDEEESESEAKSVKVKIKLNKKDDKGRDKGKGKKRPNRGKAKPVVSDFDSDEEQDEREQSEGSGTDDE

[3] = biological target: SMARCA2 (Homo sapiens, UniProt P51531); assay: SMARCA2 ATPase activity inhibition by known bromodomain inhibitors (HTS ADP-Glo bioluminescent format); assay type: biochemical; conditions: read-out: % inh SMARCA2 at 10 nM
Sequence of SMARCA2 (P51531 whole entry): as above
Protocol: As such, the development of viable antagonists or inhibitors (i.e., ATPase inhibitors) requires methods of monitoring ATPase activity.
The signal to background ratio, ATPase activity as a function of protein concentration, and the dependence of ATP activity on mononucleosome substrate were determined for the isolated full length SMARCA2 and SMARACA4 in a high throughput screening bioluminescent assay (HTS ADP-Glo™ format).

With O=C(/C=C/N1C[C@H]2C[C@@H]1CN2c1ccccn1)c1ccccc1O [PFI3] the “effect on cell growth” value [1] was “no functional effect; also recorded: does not impact cell growth”, the “binding affinity to SMARCA2” value [2] was “nanomolar affinity” and the inhibition at 0.01 µM [3] was 5%.
